Source: the Deep4Chem optical property database

Assay: solvent given as SMILES

Molecule `c1ccc(-c2cc(-c3ccccc3)cc(-c3ccc4c(c3)C3(c5cc(-c6cc(-c7ccccc7)cc(-c7ccccc7)c6)ccc5-4)c4ccccc4-c4c3c3c5ccccc5ccc3c3ccccc43)c2)cc1` has an emission maximum (in C1CCOC1) of 420 nm.
Work on `CCCCCCOc1cc(C=O)c(OCCCCCC)cc1C=O` yielded an emission maximum (in ClCCl) of 467 nm.
Work on `Fc1cc(F)c2cc3cccc[n+]3cc2c1` yielded an emission maximum (in O) of 420 nm.
`COC(=O)C(Cc1ccc2oc(-c3ccc(Nc4ccccc4)cc3)nc2c1)NC(=O)OC(C)(C)C` (centres undefined) showed an emission maximum (in C1CCCCC1) of 382 nm, an emission maximum (in C1CCOC1) of 419.01 nm and an emission maximum (in C1COCCO1) of 410.51 nm. It also gave an emission maximum (in CC1CCCO1) of 425.01 nm, an emission maximum (in CC1COC(=O)O1) of 457.5 nm and an emission maximum (in CC#N) of 452 nm. For the same molecule, the emission maximum (in CC(C)=O) was 439.5 nm, the emission maximum (in CC(C)CC(C)(C)C) was 384 nm and the emission maximum (in CC(C)CO) was 438 nm. For the same molecule, the emission maximum (in CC(C)O) was 440.51 nm, the emission maximum (in CC(C)OC(C)C) was 426 nm and the emission maximum (in CC(O)CO) was 438 nm. It also gave an emission maximum (in CCC(C)CC) of 382.98 nm, an emission maximum (in CCCCC) of 382 nm and an emission maximum (in CCCCCC) of 383.49 nm. It also gave an emission maximum (in CCCCCCCCC) of 384.5 nm, an emission maximum (in CCCCCCCCCC) of 385 nm and an emission maximum (in CCCCCCCO) of 434.5 nm. For the same molecule, the emission maximum (in CCCCCCO) was 429 nm, the emission maximum (in CCCCCO) was 424 nm and the emission maximum (in CCCCO) was 441.5 nm. The emission maximum (in CCO) was 453.49 nm, the emission maximum (in CCOC(C)=O) was 412 nm and the emission maximum (in CCOCC) was 409.5 nm. For the same molecule, the emission maximum (in CN(C)C=O) was 447.51 nm, the emission maximum (in CO) was 457 nm and the emission maximum (in COCCOC) was 440.01 nm. It also gave an emission maximum (in CS(C)=O) of 459.5 nm, an emission maximum (in Cc1ccccc1) of 401.49 nm and an emission maximum (in Cc1ccccc1C) of 401.49 nm. It also gave an emission maximum (in ClC(Cl)Cl) of 420.01 nm, an emission maximum (in ClCCl) of 415.51 nm and an emission maximum (in NC=O) of 447.01 nm. For the same molecule, the emission maximum (in OC1CCCCC1) was 440.01 nm, the emission maximum (in OCCO) was 443.01 nm and the emission maximum (in c1ccccc1) was 398.5 nm.
`COCCN1C(=O)/C(=C/c2cccc(N(C)C)c2)N=C1C` gave an emission maximum (in C1CCOC1) of 563 nm, an emission maximum (in CC#N) of 632 nm and an emission maximum (in CCCCCC) of 491 nm.
In the case of `COc1ccc2c(c1)-c1ccccc1C2=O`, the emission maximum (in C1CCCCC1) is reported as 472 nm, the emission maximum (in CC#N) is reported as 510 nm and the emission maximum (in CCO) is reported as 549 nm.
For `CCCCCCCCn1cc(-n2c(-c3cc(-c4nc5ccc(C)cc5n4-c4cn(CCCCCCCC)nn4)cc(-c4nc5ccc(C)cc5n4-c4cn(CCCCCCCC)nn4)c3)nc3ccc(C)cc32)nn1`, the emission maximum (in C1CCOC1) was 382.5 nm.
`CCN(CC)c1ccc(-c2nc3c4ccccc4n(C)c3nc2-c2ccc([B-](F)(c3c(C)cc(C)cc3C)c3c(C)cc(C)cc3C)cc2)cc1` gave an emission maximum (in C1CCOC1) of 508.44 nm.
Work on `CC(C)[Si](C#Cc1c2nsnc2c(C#C[Si](C(C)C)(C(C)C)C(C)C)c2nc3c(ccc4ccccc43)nc12)(C(C)C)C(C)C` yielded an emission maximum (in CCCCCC) of 617 nm.
For `O=C1c2ccccc2NCN1Cc1ccccc1`, the emission maximum (in CC#N) was 416 nm, the emission maximum (in CCCCCCCCCCCCCCCC) was 381 nm and the emission maximum (in CO) was 443 nm. The emission maximum (in ClC(Cl)Cl) was 398 nm and the emission maximum (in c1ccccc1) was 395 nm.
`Cc1cc2c3ccccc3oc2c2[nH]c3ccccc3c12` showed an emission maximum (in ClCCl) of 353 nm.
`O=C1c2ccccc2C2=Cc3ccc4ccccc4[n+]3[B-](F)(F)N12` gave an emission maximum (in CCO) of 465 nm, an emission maximum (in Cc1ccccc1) of 474 nm and an emission maximum (in ClCCl) of 464 nm.
With `CCN(CC)c1ccc2c(c1)oc(=O)c1cc3c(-c4ccccc4)nn(-c4ccccc4)c3nc12` the emission maximum (in ClCCl) was 509 nm.
`O=Cc1ccc(-c2cccc(-c3nc4ccccc4s3)c2O)o1` showed an emission maximum (in CCO) of 567 nm, an emission maximum (in ClCCl) of 565 nm and an emission maximum (in O) of 585 nm.
`COc1ccc2cc(C#Cc3ccc([N+](=O)[O-])cc3)ccc2c1` showed an emission maximum (in C1CCOC1) of 533 nm, an emission maximum (in ClC(Cl)Cl) of 592 nm and an emission maximum (in ClCCl) of 635 nm.
`N#Cc1cccc2ccccc12` showed an emission maximum (in Cc1ccccc1) of 341.02 nm.
Work on `Oc1ccccc1-c1nc2c3cccnc3c3ncccc3c2n1-c1ccccc1` yielded an emission maximum (in Cc1ccccc1) of 379 nm.
Molecule `O=C1CCCC2=C1C(c1ccc([N+](=O)[O-])cc1)c1c(c3ccccc3oc1=O)N2` (centres undefined) has an emission maximum (in CS(C)=O) of 441 nm.
With `O=c1c2ccccc2nc2ccccn12` the emission maximum (in ClCCl) was 442 nm.
In the case of `C[Si]1(C)c2ccccc2-c2ccccc21`, the emission maximum (in ClCCl) is reported as 359 nm.
`FC(F)(F)c1ccc(/C=C/c2nc3c(ccc4ccccc43)s2)cc1` gave an emission maximum (in C1CCCCC1) of 432 nm and an emission maximum (in CC#N) of 445 nm.
Molecule `CCC1=C(CC)C(C)=[N+]2C1=Cc1c(C)c3cc4c(cc3n1[B-]2(F)F)=[N+]1C(=Cc2c(CC)c(CC)c(C)n2[B-]1(F)F)C=4C` has an emission maximum (in ClC(Cl)Cl) of 703 nm.
In the case of `CC1=CC(C)(C)N(C)c2cc3c(cc21)C(c1ccc(Br)cc1)=c1cc2c(cc1O3)=[N+](C)C(C)(C)C=C2C`, the emission maximum (in CCO) is reported as 616 nm.
In the case of `CCCCCC(=O)c1c2c(c(C(=O)CCCCC)c3c1OC1(CCCC1)O3)OC1(CCCC1)O2`, the emission maximum (in CC#N) is reported as 561 nm, the emission maximum (in CCCCCC) is reported as 525 nm and the emission maximum (in CCO) is reported as 596 nm. It also gave an emission maximum (in CO) of 611 nm and an emission maximum (in ClCCl) of 561 nm.
`F[B-]1(F)N2C=CN=CC2=[N+]2[N+]1=Cc1c(-c3ccccc3)cc(-c3ccccc3)n1[B-]2(F)F` gave an emission maximum (in ClCCl) of 560 nm.
With `CCC1=C(C)C(=O)n2c1cc1c(C)c(CC)c(C)n1c2=O` the emission maximum (in CO) was 540 nm, the emission maximum (in CS(C)=O) was 510 nm and the emission maximum (in ClC(Cl)Cl) was 500 nm. The emission maximum (in c1ccccc1) was 500 nm.
For `O=C(O)CCCOc1cccc(-c2c3nc(cc4ccc([nH]4)c(-c4cccc(OCCCC(=O)O)c4)c4nc(cc5ccc2[nH]5)CC4)C=C3)c1`, the emission maximum (in CS(C)=O) was 649 nm.
For `COc1ccc(-c2ccc(-c3cc(-c4ccccn4)nc(-c4ccccn4)c3)cc2)cc1`, the emission maximum (in ClCCl) was 403 nm.
With `O=P1(c2ccccc2)c2ccc(N3c4ccccc4Sc4ccccc43)cc2-c2cc(N3c4ccccc4Sc4ccccc43)ccc21` the emission maximum (in Cc1ccccc1) was 559 nm and the emission maximum (in c1ccc2c(c1)c1ccccc1n2-c1ccc(-c2ccc(-n3c4ccccc4c4ccccc43)cc2)cc1) was 555 nm.
With `CCCCn1c2ccccc2c2ccc3c4cc(-c5ccc6ccccc6c5)ccc4n(CCCC)c3c21` the emission maximum (in ClC(Cl)Cl) was 410 nm.
For `CCc1c(C)c2n(c1C)[B-](F)(F)[N+]1=C(c3ccc[nH]3)c3ccccc3C1=C2`, the emission maximum (in C1CCOC1) was 631 nm, the emission maximum (in CC#N) was 628 nm and the emission maximum (in CCCCCC) was 626 nm. For the same molecule, the emission maximum (in CO) was 628 nm, the emission maximum (in Cc1ccccc1) was 635 nm and the emission maximum (in ClCCl) was 634 nm.
`CC1(C)C(/C=C/C2=C(Cl)C(=C/C=C3/N(CCCCCC(=O)O)c4ccccc4C3(C)C)/CCC2)=[N+](CCCCCC(=O)O)c2ccccc21` gave an emission maximum (in CO) of 808 nm.
In the case of `c1cc2ccc3cc4[nH]c(-c5cc6c(cc7ccc8cccc9ccc6c7c89)[nH]5)cc4c4ccc(c1)c2c34`, the emission maximum (in C1CCOC1) is reported as 482 nm.
With `CCC1=C(C)c2cc3c(OC)cc(OC)cc3c(=O)n2C1=O` the emission maximum (in CC#N) was 476 nm, the emission maximum (in CO) was 510 nm and the emission maximum (in CS(C)=O) was 485 nm. The emission maximum (in ClC(Cl)Cl) was 469 nm.
In the case of `CN1C(=CC2=C([O-])C(=CC3=[N+](C)c4ccccc4C3(C)C)C2=C2C(=O)c3ccccc3C2=O)C(C)(C)c2ccccc21`, the emission maximum (in ClC(Cl)Cl) is reported as 699 nm.
In the case of `Cc1ccc(C#Cc2ccc(C#Cc3ccc(C#Cc4ccccc4C#N)cc3C#N)cc2C#N)cc1`, the emission maximum (in ClC(Cl)Cl) is reported as 403 nm.
`Cn1cc(-c2nc3ccccc3nc2C#Cc2ccccc2)c2ccccc21` gave an emission maximum (in ClCCl) of 510 nm.
Molecule `CCCCOc1ccc(-c2cc3c(o2)c(-c2ccc(OCCCC)cc2)c2n3[B-](F)(F)[N+]3=Cc4c(-c5ccc(OCCCC)cc5)c5oc(-c6ccc(OCCCC)cc6)cc5n4[B-](F)(F)[N+]3=C2)cc1` has an emission maximum (in C1CCOC1) of 659 nm, an emission maximum (in CN(C)C=O) of 667 nm and an emission maximum (in CS(C)=O) of 672 nm. For the same molecule, the emission maximum (in Cc1ccccc1) was 660 nm, the emission maximum (in ClC(Cl)Cl) was 660 nm and the emission maximum (in ClCCl) was 661 nm.
`N#Cc1nc(N(Cc2ccccc2F)Cc2ccccc2F)c(C#N)nc1N(Cc1ccccc1F)Cc1ccccc1F` gave an emission maximum (in ClC(Cl)Cl) of 570 nm.
Molecule `Cc1ccc(C(=O)OCc2ccc3c4cccc5cccc(c6cccc2c63)c54)cc1` has an emission maximum (in CCO) of 445 nm.
In the case of `Cc1cc(=O)oc2cc3cc(O)ccc3cc12`, the emission maximum (in CC#N) is reported as 450 nm and the emission maximum (in CCO) is reported as 466 nm.
In the case of `CN(C)c1ccc(/C=C/C=C2\CC/C(=C\c3ccc(N(C)C)cc3)C2=O)cc1`, the emission maximum (in C1CCOC1) is reported as 649 nm, the emission maximum (in CC#N) is reported as 666 nm and the emission maximum (in CC(C)=O) is reported as 650 nm. The emission maximum (in CC(C)O) was 687 nm, the emission maximum (in CCCCCC) was 504 nm and the emission maximum (in CCCCO) was 712 nm. The emission maximum (in CCCCOC(C)=O) was 581 nm, the emission maximum (in CCCO) was 717 nm and the emission maximum (in CCO) was 725 nm. For the same molecule, the emission maximum (in CCOC(=O)c1ccccc1) was 604 nm, the emission maximum (in CCOC(C)=O) was 591 nm and the emission maximum (in CCOCC) was 546 nm. The emission maximum (in CN(C)C=O) was 656 nm, the emission maximum (in CO) was 737 nm and the emission maximum (in CS(C)=O) was 676 nm. The emission maximum (in Cc1ccccc1) was 530 nm, the emission maximum (in ClC(Cl)(Cl)Cl) was 515 nm and the emission maximum (in ClC(Cl)Cl) was 623 nm. The emission maximum (in ClCCl) was 635 nm, the emission maximum (in Clc1ccccc1Cl) was 608 nm and the emission maximum (in S=C=S) was 540 nm. It also gave an emission maximum (in c1ccccc1) of 532 nm and an emission maximum (in c1ccncc1) of 643 nm.
In the case of `CN(C)c1ccc2c(c1)C(C)(C)C1=CC(=[N+](C)C)C=CC1=C2`, the emission maximum (in CO) is reported as 620 nm and the emission maximum (in O) is reported as 621 nm.
`c1ccc2c(C3=C(c4cccc5ccccc45)c4cccc5c4c(cc4nc6ccccc6nc45)O3)cccc2c1` gave an emission maximum (in ClCCl) of 538 nm.
Work on `CCC1=C(C)C(=O)n2c1cc1c(CCC(=O)O)c(C)c(C)n1c2=O` yielded an emission maximum (in CO) of 540 nm, an emission maximum (in CS(C)=O) of 510 nm and an emission maximum (in ClC(Cl)Cl) of 500 nm. For the same molecule, the emission maximum (in c1ccccc1) was 470 nm.
Work on `COc1ccc(-c2cc3c(cc2OC)-c2c(c4c(c5c2-c2cc(OC)c(-c6ccc(OC)cc6)cc2C5)C(=O)N(CCC(C)C)C4=O)C3)cc1` yielded an emission maximum (in C1CCOC1) of 493 nm.
`FC(F)(F)c1cc2n(n1)[B-]1(c3ccccc3-c3ccccc31)[n+]1ccc3ccccc3c1-2` showed an emission maximum (in C1CCCCC1) of 490 nm, an emission maximum (in Cc1ccccc1) of 538 nm and an emission maximum (in ClCCl) of 564 nm.
With `O=C(c1ccc(C(=O)c2ccc(N3c4ccccc4Oc4ccccc43)cc2)cc1)c1ccc(N2c3ccccc3Oc3ccccc32)cc1` the emission maximum (in Cc1ccccc1) was 600 nm and the emission maximum (in c1cc(-c2cccc(-n3c4ccccc4c4ccccc43)c2)cc(-n2c3ccccc3c3ccccc32)c1) was 555 nm.
